Assays:
Solubility = assay type: physicochemical; conditions: prevented its clinical evaluation
[1] = system: murine leukemia P388 tumor cells; assay: Single-dose treatment against two-day murine leukemia P388 (increase in median lifespan); assay type: in vivo, CDF1 mice
Experimental: (§1) A single dose of 1-neopentyl-3-(2-chloroethyl)-3-nitrosourea (NCNU) was injected intraperitoneally (ip) in CDF1 mice which had been implanted ip two days earlier with approximately 10×10^5 murine leukemia L1210 tumor cells. The NCNU was dissolved in emulphor EL-620 (polyoxyethylated; GAF Corporation, New York, N.Y.) and raised to the desired volume with 0.85% sodium chloride.
The study of Experiment I was conducted using approximately 5×10^5 murine leukemia P388 tumor cells (0.1 ml of a 1:100 dilution).
(§2) Effects of Single-Dose Treatment with NCNU Against
Two-Day Murine Leukemia P388
(§3) experiments are continuing.

[2] = system: murine leukemia L1210 tumor cells; assay: Single-dose treatment against two-day murine leukemia L1210 (increase in median lifespan); assay type: in vivo, CDF1 mice
Experimental: as §1, §2
Two-Day Murine Leukemia L1210
as §3

[3] = Toxicity of single-dose NCNU ip in normal mice (deaths); set-up: species or system CDFl mice; conditions: in vivo; for mortality at 192 h: at day 8; for mortality at 24 h: at day 1; for mortality at 216 h: at day 9
Experimental: Toxicity studies were conducted by injecting a single dose of NCNU ip.
Toxicity of NCNU in CDFl Normal Mice

[4] = system: Yancey's lymphocytic leukemia (YLL); assay: Single-dose treatment against two-day Yancey's lymphocytic leukemia (increase in median life span); assay type: in vivo, mouse
Experimental: (§4) The effect of NCNU was tested against Yancey's lymphocytic leukemia (YLL) which had been implanted subcutaneously (sc) two days before injection of the drug. The single injection of 0.1 ml of a solution of one spleen of a YLL bearing mouse homogenized in 10 ml Locke's Solution was given either intraperitoneally or subcutaneously.
as §2
Two-Day Yancey's Lymphocytic Leukemia
as §3

various forms of cancer = assay: Human studies, patients having advanced stages of various forms of cancer; assay type: in vivo; conditions: two 25 mg/kg sc doses or iv, total 50 mg/kg daily
Experimental: Patients having advanced stages of various forms of cancer are treated by subcutaneous injection of two 25 mg/kg doses of NCNU in water or by intravenous administration of 1 milligram NCNU/ml 0.9% saline to provide a total daily dose of 50 mg/kg; a full clinical examination is carried out prior to and after administration. Tumor growth is measured where possible by palpition, X-rays and photography.

[5] = system: Yancey's lymphocytic leukemia (YLL); assay: NCNU against Yancey's lymphocytic leukemia, treatment begun day 2 or 7, several schedules; assay type: in vivo, mouse
Experimental: as §4
The study of Experiment III was conducted with NCNU treatment beginning at 2 or 7 days after implantation of YLL tumors. NCNU injection was ip or sc on a schedule of one time per week for 4 weeks, twice per week for 4 weeks, or a single dose.
Effects of NCNU Against Yancey's
as §3

[6] = Chemical stability of isocyanates; assay type: physicochemical; conditions: for half-life: physiological pH and temperature; for stability (hydrolysis): water-acetone (1:3), 57° C., three-day period, pH 6.0
Experimental: Both have half-lives of greater than 30 minutes at physiological pH and temperature.

CC(C)(C)CNC(=O)N(CC(C)(C)C)N=O
solubility (Solubility): limited solubility

CC(C)(C)CNC(=O)N(CCCl)N=O [NCNU, 1-neopentyl-3-(2-chloroethyl)-3-nitrosourea]
% ILS ([1]; 0.5 mg/mouse): 41.5% | % ILS ([1]; 1.0 mg/mouse): 91.7% | % ILS ([1]; 2.0 mg/mouse, + = animals not yet all died): ≥ 483% | % ILS (increase in median lifespan) ([2]; 25 mg/kg ip): 37.5% | % ILS (increase in median lifespan) ([2]; 50 mg/kg ip): 100% | % ILS (increase in median lifespan) ([2]; 75 mg/kg ip, + = animals not yet all died): ≥ 275% | % ILS (increase in median lifespan) ([2]; 100 mg/kg ip, + = animals not yet all died): ≥ 275% | mortality ([3]; 1.0 mg/mouse ip): 0% | mortality at 312 h ([3]; 2.0 mg/mouse ip, at day 13, others survived): 60% | mortality at 240 h ([3]; 4.0 mg/mouse ip, at day 10): 100% | mortality at 192 h ([3]; 8.0 mg/mouse ip): 100% | mortality at 96 h ([3]; 16.0 mg/mouse ip, at day 4): 100% | mortality at 24 h ([3]; 20.0 mg/mouse ip): 100% | mortality at 24 h ([3]; 32.0 mg/mouse ip): 100% | mortality at 312 h ([3]; mouse, 100 mg/kg ip, at day 13): 100% | mortality at 264 h ([3]; mouse, 150 mg/kg ip, at day 11): 100% | mortality at 216 h ([3]; mouse, 200 mg/kg ip): 100% | mortality at 216 h ([3]; mouse, 225 mg/kg ip): 100% | mortality at 192 h ([3]; mouse, 250 mg/kg ip): 100% | mortality at 120 h ([3]; mouse, 500 mg/kg ip, at day 5): 100% | mortality at 48 h ([3]; mouse, 750 mg/kg ip, at day 2): 100% | mortality at 24 h ([3]; mouse, 1000 mg/kg ip): 100% | % ILS ([4]; 0.5 mg/mouse ip, single dose (first entry)): 14.3% | % ILS ([4]; 0.5 mg/mouse ip, single dose (second entry)): 6.7% | % ILS ([4]; 0.5 mg/mouse sc, single dose (first entry)): 35.7% | % ILS ([4]; 0.5 mg/mouse sc, single dose (second entry)): 13.3% | % ILS ([4]; 1.0 mg/mouse ip, single dose (first entry)): 64.3% | % ILS ([4]; 1.0 mg/mouse ip, single dose (second entry)): 33.3% | % ILS ([4]; 1.0 mg/mouse sc, single dose (first entry)): 64.3% | % ILS ([4]; 1.0 mg/mouse sc, single dose (second entry)): 20.0% | % ILS ([4]; 2.0 mg/mouse ip, single dose, + = animals not yet all died): ≥ 264% | % ILS ([4]; 2.0 mg/mouse sc, single dose): 78.0% | % ILS ([4]; 25 mg/kg ip, single dose): 13.3% | % ILS ([4]; 25 mg/kg sc, single dose): 6.6% | % ILS ([4]; 50 mg/kg ip, single dose): 60.0% | % ILS ([4]; 50 mg/kg sc, single dose): 60.0% | % ILS ([4]; 75 mg/kg ip, single dose): 66.6% | % ILS ([4]; 75 mg/kg sc, single dose): 73.3% | inflammation (various forms of cancer): Inflammation gradually subsides | tumor size (various forms of cancer): tumor size frequently decreases | clinical improvement (various forms of cancer; within several days): marked clinical improvement within several days | % ILS ([5]; 0.5 mg/mouse ip, 1x/wk for 4 wks, begun day 2): 28.6% | % ILS ([5]; 0.5 mg/mouse ip, once, begun day 7): 6.7% | % ILS ([5]; 0.5 mg/mouse sc, 1x/wk for 4 wks, begun day 2, + = animals not yet all died): ≥ 114.3% | % ILS ([5]; 0.5 mg/mouse sc, once, begun day 7): 6.7% | % ILS ([5]; 1.0 mg/mouse ip, 1x/wk for 4 wks, begun day 2): 178.6% | % ILS ([5]; 1.0 mg/mouse ip, once, begun day 7): 66.6% | % ILS ([5]; 1.0 mg/mouse sc, 1x/wk for 4 wks, begun day 2, + = animals not yet all died): ≥ 207.1% | % ILS ([5]; 1.0 mg/mouse sc, once, begun day 7): 66.6% | % ILS ([5]; 2.0 mg/mouse ip, 1x/wk for 4 wks, begun day 2): 14.3% | % ILS ([5]; 2.0 mg/mouse sc, 1x/wk for 4 wks, begun day 2, + = animals not yet all died): ≥ 264% | % ILS ([5]; 25 mg/kg ip, 1x/wk for 4 wks, begun day 2, + = animals not yet all died): ≥ 100% | % ILS ([5]; 25 mg/kg ip, 2x/wk for 4 wks, begun day 2, + = animals not yet all died): ≥ 100% | % ILS ([5]; 25 mg/kg sc, 1x/wk for 4 wks, begun day 2, + = animals not yet all died): ≥ 100% | % ILS ([5]; 25 mg/kg sc, 2x/wk for 4 wks, begun day 2, + = animals not yet all died): ≥ 100% | % ILS ([5]; 50 mg/kg ip, 1x/wk for 4 wks, begun day 2, + = animals not yet all died): ≥ 100% | % ILS ([5]; 50 mg/kg ip, 2x/wk for 4 wks, begun day 2, + = animals not yet all died): ≥ 100% | % ILS ([5]; 50 mg/kg sc, 1x/wk for 4 wks, begun day 2, + = animals not yet all died): ≥ 100% | % ILS ([5]; 50 mg/kg sc, 2x/wk for 4 wks, begun day 2, + = animals not yet all died): ≥ 100% | % ILS ([5]; 75 mg/kg ip, 1x/wk for 4 wks, begun day 2, + = animals not yet all died): ≥ 100% | % ILS ([5]; 75 mg/kg ip, 2x/wk for 4 wks, begun day 2): 66.6% | % ILS ([5]; 75 mg/kg sc, 1x/wk for 4 wks, begun day 2, + = animals not yet all died): ≥ 100% | % ILS ([5]; 75 mg/kg sc, 2x/wk for 4 wks, begun day 2): 0%

CC(C)(C)CCN=C=O [neohexyl isocyanate]
half-life [6]: > 30 min | stability (hydrolysis) [6]: remarkably stable

CC(C)(C)CN=C=O [neopentyl isocyanate]
half-life [6]: > 30 min | stability (hydrolysis) [6]: remarkably stable
